# Measured values published in patent US20230000813A1, “COMPOUND FOR THE TREATMENT OF BOVINE OR SWINE RESPIRATORY DISEASE” (Intervet Inc., priority 2016, published 2023).
# System: Mannheimia haemolytica MH 13065 (XB0446-6003.9, BRD field isolate)
# Experiment: MIC, broth-microdilution (CLSI VET01-A4)
# Type: cell-based
# Conditions: not given
# Method in brief: (§1)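 MIC read by eye as lowest compound concentration without visible growth (no turbidity), interpreted per CLSI VET01-S3. Doubling-dilution broth-microdilution trays, run according to CLSI VET01-A4.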
row,SMILES,MIC
1,C#CCNCc1ccc(C#Cc2ccc(C(=O)NC(C(=O)NO)C(C)(C)N)cc2)cn1 (racemic) [Compound 647],0.8 µM
2,C[C@@H](O)[C@H](NC(=O)c1ccc(C#Cc2ccc(CN(C)Cc3ccccc3)o2)cc1)C(=O)NO [Compound 205],0.8 µM
3,C[C@@H](O)[C@H](NC(=O)c1ccc(C#Cc2ccc(CN3CCOCC3)s2)cc1)C(=O)NO [C. 192],0.8 µM
4,C[C@@H](O)[C@H](NC(=O)c1ccc(C#Cc2ccc(CNCC#N)cc2)cc1)C(=O)NO [C. 360],0.4 µM
5,CC(C)([C@H](NC(=O)c1ccc(C#Cc2ccc(CNCc3nccs3)s2)cc1)C(=O)NO)S(C)(=O)=O [Compound 745],0.4 µM

# System: Mannheimia haemolytica MH 13093 (XB0472-6014.1, BRD field isolate)
# Experiment: MIC, broth-microdilution (CLSI VET01-A4)
# Type: cell-based
# Conditions: not given
# Method in brief: as §1
row,SMILES,MIC
1,C#CCNCc1ccc(C#Cc2ccc(C(=O)NC(C(=O)NO)C(C)(C)N)cc2)cn1 (racemic) [Compound 647],0.8 µM
2,C[C@@H](O)[C@H](NC(=O)c1ccc(C#Cc2ccc(CN(C)Cc3ccccc3)o2)cc1)C(=O)NO [Compound 205],1.6 µM
3,C[C@@H](O)[C@H](NC(=O)c1ccc(C#Cc2ccc(CN3CCOCC3)s2)cc1)C(=O)NO [C. 192],0.8 µM
4,C[C@@H](O)[C@H](NC(=O)c1ccc(C#Cc2ccc(CNCC#N)cc2)cc1)C(=O)NO [C. 360],0.8 µM
5,CC(C)([C@H](NC(=O)c1ccc(C#Cc2ccc(CNCc3nccs3)s2)cc1)C(=O)NO)S(C)(=O)=O [Compound 745],0.4 µM

# System: Pasteurella multocida PM 12080 (IV102277-0093, BRD field isolate)
# Experiment: MIC, broth-microdilution (CLSI VET01-A4)
# Type: cell-based
# Conditions: Pasteurella multocida PM 12080
# Method in brief: (§2)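 MIC values follow CLSI VET01-S3 interpretation, scored as the lowest concentration free of visible turbidity within a doubling dilution series in microdilution trays.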
row,SMILES,MIC PM 12080
1,C[C@@H](O)[C@H](NC(=O)c1ccc(C#Cc2ccc(CN3CCOCC3)s2)cc1)C(=O)NO [C. 192],<=0.1 μM
2,C[C@@H](O)[C@H](NC(=O)c1ccc(C#Cc2ccc(CNCC#N)cc2)cc1)C(=O)NO [C. 360],<=0.1 μM
3,CC(C)([C@H](NC(=O)c1ccc(C#Cc2ccc(CNCc3nccs3)s2)cc1)C(=O)NO)S(C)(=O)=O [Compound 745],<=0.1 μM

# Same assay, conditions: Pasteurella multocida PM 12080; read-out: MIC PM 12080
row,SMILES,MIC
1,C#CCNCc1ccc(C#Cc2ccc(C(=O)NC(C(=O)NO)C(C)(C)N)cc2)cn1 (racemic) [Compound 647],0.4 µM
2,C[C@@H](O)[C@H](NC(=O)c1ccc(C#Cc2ccc(CN(C)Cc3ccccc3)o2)cc1)C(=O)NO [Compound 205],0.2 µM

# System: Pasteurella multocida PM 6267 (P 2225 (L386), reference strain, mouse infection strain)
# Experiment: MIC, broth-microdilution (CLSI VET01-A4)
# Type: cell-based
# Conditions: Pasteurella multocida PM 6267
# Method in brief: as §2
row,SMILES,MIC PM 6267
1,C#CCNCc1ccc(C#Cc2ccc(C(=O)NC(C(=O)NO)C(C)(C)N)cc2)cn1 (racemic) [Compound 647],<=0.1 μM
2,C[C@@H](O)[C@H](NC(=O)c1ccc(C#Cc2ccc(CN(C)Cc3ccccc3)o2)cc1)C(=O)NO [Compound 205],<=0.1 μM
3,C[C@@H](O)[C@H](NC(=O)c1ccc(C#Cc2ccc(CN3CCOCC3)s2)cc1)C(=O)NO [C. 192],<=0.1 μM
4,C[C@@H](O)[C@H](NC(=O)c1ccc(C#Cc2ccc(CNCC#N)cc2)cc1)C(=O)NO [C. 360],<=0.1 μM
5,CC(C)([C@H](NC(=O)c1ccc(C#Cc2ccc(CNCc3nccs3)s2)cc1)C(=O)NO)S(C)(=O)=O [Compound 745],<=0.1 μM

# System: Mannheimia haemolytica MH 10720 (154, BRD field isolate)
# Experiment: MIC, broth-microdilution (CLSI VET01-A4)
# Type: cell-based
# Conditions: Mannheimia haemolytica MH 10720
# Method in brief: as §2
row,SMILES,MIC MH 10720
1,C[C@@H](O)[C@H](NC(=O)c1ccc(C#Cc2ccc(CN(C)Cc3ccccc3)o2)cc1)C(=O)NO [Compound 205],<=0.1 μM
2,CC(C)([C@H](NC(=O)c1ccc(C#Cc2ccc(CNCc3nccs3)s2)cc1)C(=O)NO)S(C)(=O)=O [Compound 745],<=0.1 μM

# Same assay, conditions: Mannheimia haemolytica MH 10720; read-out: MIC MH 10720
row,SMILES,MIC
1,C#CCNCc1ccc(C#Cc2ccc(C(=O)NC(C(=O)NO)C(C)(C)N)cc2)cn1 (racemic) [Compound 647],0.4 µM
2,C[C@@H](O)[C@H](NC(=O)c1ccc(C#Cc2ccc(CN3CCOCC3)s2)cc1)C(=O)NO [C. 192],0.2 µM
3,C[C@@H](O)[C@H](NC(=O)c1ccc(C#Cc2ccc(CNCC#N)cc2)cc1)C(=O)NO [C. 360],0.2 µM

# System: Mannheimia haemolytica MH 12587 (1071, BRD field isolate, macrolide-resistance: erm+, E+)
# Experiment: MIC, broth-microdilution (CLSI VET01-A4)
# Type: cell-based
# Conditions: Mannheimia haemolytica MH 12587, macrolide-resistant
# Method in brief: as §2
row,SMILES,MIC MH 12587
1,C#CCNCc1ccc(C#Cc2ccc(C(=O)NC(C(=O)NO)C(C)(C)N)cc2)cn1 (racemic) [Compound 647],1.6 µM
2,C[C@@H](O)[C@H](NC(=O)c1ccc(C#Cc2ccc(CN(C)Cc3ccccc3)o2)cc1)C(=O)NO [Compound 205],1.6 µM
3,C[C@@H](O)[C@H](NC(=O)c1ccc(C#Cc2ccc(CN3CCOCC3)s2)cc1)C(=O)NO [C. 192],1.6 µM
4,C[C@@H](O)[C@H](NC(=O)c1ccc(C#Cc2ccc(CNCC#N)cc2)cc1)C(=O)NO [C. 360],0.8 µM
5,CC(C)([C@H](NC(=O)c1ccc(C#Cc2ccc(CNCc3nccs3)s2)cc1)C(=O)NO)S(C)(=O)=O [Compound 745],0.4 µM

# System: Mannheimia haemolytica MH 6374 (ATCC 33396, reference strain)
# Experiment: MIC, broth-microdilution (CLSI VET01-A4)
# Type: cell-based
# Conditions: Mannheimia haemolytica MH 6374; read-out: MIC MH 6374
# Method in brief: as §2
row,SMILES,MIC
1,C#CCNCc1ccc(C#Cc2ccc(C(=O)NC(C(=O)NO)C(C)(C)N)cc2)cn1 (racemic) [Compound 647],0.8 µM
2,C[C@@H](O)[C@H](NC(=O)c1ccc(C#Cc2ccc(CN(C)Cc3ccccc3)o2)cc1)C(=O)NO [Compound 205],0.8 µM
3,C[C@@H](O)[C@H](NC(=O)c1ccc(C#Cc2ccc(CN3CCOCC3)s2)cc1)C(=O)NO [C. 192],0.8 µM
4,C[C@@H](O)[C@H](NC(=O)c1ccc(C#Cc2ccc(CNCC#N)cc2)cc1)C(=O)NO [C. 360],0.4 µM
5,CC(C)([C@H](NC(=O)c1ccc(C#Cc2ccc(CNCc3nccs3)s2)cc1)C(=O)NO)S(C)(=O)=O [Compound 745],0.2 µM

# System: Pasteurella multocida PM 6391 (ATCC 43137, reference strain)
# Experiment: MIC, broth-microdilution (CLSI VET01-A4)
# Type: cell-based
# Conditions: Pasteurella multocida PM 6391
# Method in brief: as §2
row,SMILES,MIC PM 6391
1,C[C@@H](O)[C@H](NC(=O)c1ccc(C#Cc2ccc(CNCC#N)cc2)cc1)C(=O)NO [C. 360],<=0.1 μM
2,CC(C)([C@H](NC(=O)c1ccc(C#Cc2ccc(CNCc3nccs3)s2)cc1)C(=O)NO)S(C)(=O)=O [Compound 745],<=0.1 μM

# Same assay, conditions: Pasteurella multocida PM 6391; read-out: MIC PM 6391
row,SMILES,MIC
1,C#CCNCc1ccc(C#Cc2ccc(C(=O)NC(C(=O)NO)C(C)(C)N)cc2)cn1 (racemic) [Compound 647],0.4 µM
2,C[C@@H](O)[C@H](NC(=O)c1ccc(C#Cc2ccc(CN(C)Cc3ccccc3)o2)cc1)C(=O)NO [Compound 205],0.4 µM
3,C[C@@H](O)[C@H](NC(=O)c1ccc(C#Cc2ccc(CN3CCOCC3)s2)cc1)C(=O)NO [C. 192],0.2 µM

# System: Mannheimia haemolytica MH 6357 (M7/2, reference strain, cattle infection strain)
# Experiment: MIC, broth-microdilution (CLSI VET01-A4)
# Type: cell-based
# Conditions: Mannheimia haemolytica MH 6357; read-out: MIC MH 6357
# Method in brief: as §2
row,SMILES,MIC
1,C#CCNCc1ccc(C#Cc2ccc(C(=O)NC(C(=O)NO)C(C)(C)N)cc2)cn1 (racemic) [Compound 647],1.6 µM
2,C[C@@H](O)[C@H](NC(=O)c1ccc(C#Cc2ccc(CN(C)Cc3ccccc3)o2)cc1)C(=O)NO [Compound 205],0.8 µM
3,C[C@@H](O)[C@H](NC(=O)c1ccc(C#Cc2ccc(CN3CCOCC3)s2)cc1)C(=O)NO [C. 192],0.8 µM
4,C[C@@H](O)[C@H](NC(=O)c1ccc(C#Cc2ccc(CNCC#N)cc2)cc1)C(=O)NO [C. 360],0.4 µM
5,CC(C)([C@H](NC(=O)c1ccc(C#Cc2ccc(CNCc3nccs3)s2)cc1)C(=O)NO)S(C)(=O)=O [Compound 745],0.4 µM

# System: Pasteurella multocida PM 10775 (080130003051, BRD field isolate)
# Experiment: MIC, broth-microdilution (CLSI VET01-A4)
# Type: cell-based
# Conditions: Pasteurella multocida PM 10775
# Method in brief: as §2
row,SMILES,MIC PM 10775
1,C#CCNCc1ccc(C#Cc2ccc(C(=O)NC(C(=O)NO)C(C)(C)N)cc2)cn1 (racemic) [Compound 647],<=0.1 μM
2,C[C@@H](O)[C@H](NC(=O)c1ccc(C#Cc2ccc(CN(C)Cc3ccccc3)o2)cc1)C(=O)NO [Compound 205],<=0.1 μM
3,C[C@@H](O)[C@H](NC(=O)c1ccc(C#Cc2ccc(CN3CCOCC3)s2)cc1)C(=O)NO [C. 192],<=0.1 μM
4,C[C@@H](O)[C@H](NC(=O)c1ccc(C#Cc2ccc(CNCC#N)cc2)cc1)C(=O)NO [C. 360],<=0.1 μM
5,CC(C)([C@H](NC(=O)c1ccc(C#Cc2ccc(CNCc3nccs3)s2)cc1)C(=O)NO)S(C)(=O)=O [Compound 745],<=0.1 μM
